Test results as given in US3941842A, “P,P'-Disubstituted α-trichloromethylbenzylanilines” (priority 1972, dated 1976).
Entries after “also recorded” stand apart in the source; their conditions may differ.

System: Musca domestica Snaidm
Experiment: Topical LD50 to adult female SNAIDM houseflies
Settings: Musca domestica, topical, read-out: Topical LD50, Musca domestica Snaidm, Alone
Protocol: (§1) The compounds of the present invention were tested for insecticidal activity by standard methods, and compared with the insecticidal activities of DDT and symmetrical analogs of DDT, such methoxychlor. Toxicological methods for the determination of the topical LD50 values to adult female SNAIDM and RSP houseflies, Musca domestica L. and to Phormia regina, and LC50 values to Culex pipiens quinquefasciatus Say, and Anopheles albimanus Weid mosquitoes were described by Metcalf el al., 44 Bull. World Health Org. 363 (1971). The methods for evaluation of metabolism by mouse liver homogenate and by female RSP housefly and salt-marsh caterpillar larvae Estigmene acrea Drury, were described by Kapoor et al., 18 J. Agr. Food Chem. 1145 (1970). The techniques for model eocsystem evluation were described by Metcalf et al., 5 J. Environ. Sci. Tech. 709 (1971).
(§2) Since piperonyl butoxide serves to block the action of MFO, the synergized LD50 values express the intrinsic toxicity of the compounds. With the detoxifying action of MFO enzymes blocked, the intrinsic toxicity of the compounds can thus be measured.

| Structure (SMILES) | LD50 |
| --- | --- |
| CCOc1ccc(C(Nc2ccccc2OCC)C(Cl)(Cl)Cl)cc1 (stereo not drawn) [XXI] | > 500 mg/kg |
| Cc1ccc(NC(c2ccc(C)cc2)C(Cl)(Cl)Cl)cc1 (stereo not drawn) [IV] | 43 mg/kg |
| COc1ccc(NC(c2ccc(Cl)cc2)C(Cl)(Cl)Cl)cc1 (stereo not drawn) [VI] | 39 mg/kg |
| CCOc1ccc(C(Nc2ccccc2OCC)C(Cl)(Cl)Cl)c(OCC)c1 (stereo not drawn) [XXII] | > 500 mg/kg |
| CCOc1ccc(NC(c2ccccc2OCC)C(Cl)(Cl)Cl)cc1 (stereo not drawn) [XX] | > 500 mg/kg |

Same assay, conditions: SNAIDM strain; synergized with piperonyl butoxide; topical

| Structure (SMILES) | Topical LD50, Musca domestica Snaidm, with pb |
| --- | --- |
| CCOc1ccc(C(Nc2ccccc2OCC)C(Cl)(Cl)Cl)cc1 (stereo not drawn) [XXI] | 110 μg per g |
| Cc1ccc(NC(c2ccc(C)cc2)C(Cl)(Cl)Cl)cc1 (stereo not drawn) [IV] | 5.0 μg per g |
| COc1ccc(NC(c2ccc(Cl)cc2)C(Cl)(Cl)Cl)cc1 (stereo not drawn) [VI] | 6.5 μg per g |
| CCOc1ccc(C(Nc2ccccc2OCC)C(Cl)(Cl)Cl)c(OCC)c1 (stereo not drawn) [XXII] | 500 μg per g |
| CCOc1ccc(NC(c2ccccc2OCC)C(Cl)(Cl)Cl)cc1 (stereo not drawn) [XX] | 500 μg per g |

Same assay, conditions: synergistic ratio: LD50 alone/LD50 synergized with piperonyl butoxide

| Structure (SMILES) | SR, Musca domestica Snaidm |
| --- | --- |
| CCOc1ccc(C(Nc2ccccc2OCC)C(Cl)(Cl)Cl)cc1 (stereo not drawn) [XXI] | > 5 |
| Cc1ccc(NC(c2ccc(C)cc2)C(Cl)(Cl)Cl)cc1 (stereo not drawn) [IV] | 8.6 |
| COc1ccc(NC(c2ccc(Cl)cc2)C(Cl)(Cl)Cl)cc1 (stereo not drawn) [VI] | 6.0 |

System: Musca domestica (SNAIDM and RSP strains), Phormia regina, Culex fatigans and Anopheles albimanus
Experiment: Insecticidal activity over the test insects (Table II, summarised in words)
Assay type: in vivo
Settings: overall, test insects of Table II
Protocol: as §1, §2

| Structure (SMILES) | insecticidal effectiveness / toxicity (in words) |
| --- | --- |
| CCOc1ccc(C(Nc2ccccc2OCC)C(Cl)(Cl)Cl)cc1 (stereo not drawn) [XXI] | Toxicity was greatly decreased |
| Cc1ccc(NC(c2ccc(C)cc2)C(Cl)(Cl)Cl)cc1 (stereo not drawn) [IV] | one of the more insecticidal compounds |
| CCOc1ccc(C(Nc2ccccc2OCC)C(Cl)(Cl)Cl)c(OCC)c1 (stereo not drawn) [XXII] | Toxicity was also substantially decreased |
| CCOc1ccc(NC(c2ccccc2OCC)C(Cl)(Cl)Cl)cc1 (stereo not drawn) [XX] | Toxicity was greatly decreased |

Same assay, conditions: synergism by piperonyl butoxide

| Structure (SMILES) | SR values (in words) |
| --- | --- |
| COc1ccc(NC(c2ccc(Cl)cc2)C(Cl)(Cl)Cl)cc1 (stereo not drawn) [VI] | higher SR values |

System: Musca domestica Rsp
Experiment: Topical LD50 to adult female RSP houseflies
Settings: Musca domestica, topical, read-out: Topical LD50, Musca domestica Rsp, Alone
Protocol: as §1, §2

| Structure (SMILES) | LD50 |
| --- | --- |
| CCOc1ccc(C(Nc2ccccc2OCC)C(Cl)(Cl)Cl)cc1 (stereo not drawn) [XXI] | > 500 mg/kg |
| Cc1ccc(NC(c2ccc(C)cc2)C(Cl)(Cl)Cl)cc1 (stereo not drawn) [IV] | 43 mg/kg |
| COc1ccc(NC(c2ccc(Cl)cc2)C(Cl)(Cl)Cl)cc1 (stereo not drawn) [VI] | 49 mg/kg |
| CCOc1ccc(C(Nc2ccccc2OCC)C(Cl)(Cl)Cl)c(OCC)c1 (stereo not drawn) [XXII] | > 500 mg/kg |
| CCOc1ccc(NC(c2ccccc2OCC)C(Cl)(Cl)Cl)cc1 (stereo not drawn) [XX] | > 500 mg/kg |

Same assay, conditions: RSP strain; synergized with piperonyl butoxide; topical

| Structure (SMILES) | Topical LD50, Musca domestica Rsp, with pb |
| --- | --- |
| CCOc1ccc(C(Nc2ccccc2OCC)C(Cl)(Cl)Cl)cc1 (stereo not drawn) [XXI] | 140 μg per g |
| Cc1ccc(NC(c2ccc(C)cc2)C(Cl)(Cl)Cl)cc1 (stereo not drawn) [IV] | 6.5 μg per g |
| COc1ccc(NC(c2ccc(Cl)cc2)C(Cl)(Cl)Cl)cc1 (stereo not drawn) [VI] | 14.0 μg per g |
| CCOc1ccc(C(Nc2ccccc2OCC)C(Cl)(Cl)Cl)c(OCC)c1 (stereo not drawn) [XXII] | 500 μg per g |
| CCOc1ccc(NC(c2ccccc2OCC)C(Cl)(Cl)Cl)cc1 (stereo not drawn) [XX] | > 500 μg per g |

Same assay, conditions: synergistic ratio: LD50 alone/LD50 synergized with piperonyl butoxide

| Structure (SMILES) | SR, Musca domestica Rsp |
| --- | --- |
| CCOc1ccc(C(Nc2ccccc2OCC)C(Cl)(Cl)Cl)cc1 (stereo not drawn) [XXI] | > 3.5 |
| Cc1ccc(NC(c2ccc(C)cc2)C(Cl)(Cl)Cl)cc1 (stereo not drawn) [IV] | 6.6 |
| COc1ccc(NC(c2ccc(Cl)cc2)C(Cl)(Cl)Cl)cc1 (stereo not drawn) [VI] | 3.4 |

System: not given
Experiment: not given
Settings: model ecosystem; Kapoor et al., 20(1) J. Agr. Food Chem. 1 (1972); cited from earlier work

| Structure (SMILES) | concentration found in the fish | concentration found in the snail |
| --- | --- | --- |
| CCOc1ccc(C(c2ccc(OCC)cc2)C(Cl)(Cl)Cl)cc1 [Ethoxychlor, 2,2-bis(p-ethoxyphenyl)-1,1,1-trichloroethane] | 0.92 ppm | 58.6 ppm |

Same assay, conditions: ratio of parent material in fish to concentration in water; Kapoor et al.; cited from earlier work

| Structure (SMILES) | ecological magnification (E.M.) |
| --- | --- |
| CCOc1ccc(C(c2ccc(OCC)cc2)C(Cl)(Cl)Cl)cc1 [Ethoxychlor, 2,2-bis(p-ethoxyphenyl)-1,1,1-trichloroethane] | 1500 fold |

Same assay, conditions: total recovered polar/total recovered nonpolar metabolites; ethoxychlor evaluated by Kapoor et al.; cited from earlier work

| Structure (SMILES) | Biodegradability Index (B.I.) |
| --- | --- |
| CCOc1ccc(C(c2ccc(OCC)cc2)C(Cl)(Cl)Cl)cc1 [Ethoxychlor, 2,2-bis(p-ethoxyphenyl)-1,1,1-trichloroethane] | 0.44 |

System: not listed separately
Experiment: Model ecosystem: distribution, ecological magnification and Biodegradability Index
Settings: model ecosystem comparison
From the text: After the amounts of the various metabolites have been calculated and a determination is made as to which of the metabolites are to be designated as "polar" and which are to be designated as "non-polar", a Biodegradability Index (amount of polar metabolites/amount of nonpolar metabolites) may be calculated. Remembering that nonpolar compounds, such as DDT are readily soluble in the fatty tissues, but are not readily soluble in water based solutions, and that the cell fluid is essentially a water based solution, the lower the Biodegradability Index, the lower the amount of biodegradability of the compound. The higher the amount of polarity, the greater the likelihood that the polar compound will dissolve in water, a very polar compound, and be eliminated from the cell.
The environmental fate of any new pesticide is a factor of paramount importance in determining how and where it might be used. The behavior of ^3 H-α-trichloromethyl-p-ethoxybenzyl-p-ethoxyaniline has been studied by the model ecosystem technique following application of 5.0 mg. of labeled compound to Sorghum plants. A summary of
metabolites from the organisms in the model ecosystem after 33 days were
identified by cochromatography with standards of known constitution, by
appropriate chromogenic reagents, and by high-resolution mass
spectrometry. The data of Table IV indicate the O-dealkylation of
Food Chem. 1 (1972). Ethoxychlor was found in the snail to 58.6 ppm and in the fish to 0.92 ppm, along with its ethylene and the mono- and bis-phenols formed by O-dealkylation. The ecological magnification (E.M.) of ethoxychlor, defined as the ratio of the parent material in the fish to the concentration in the water, was 1500-fold as compared with an E.M. of only 0.7-fold for the ethoxyaniline.
Comparing the Biodegradability Indices (B.I.=total recovered polar metabolites/total recovered nonpolar metabolites) the values are 0.44 for ethoxychlor and 2.0 for ethoxyaniline.

| Structure (SMILES) | biodegradability (in words) |
| --- | --- |
| CCOc1ccc(C(c2ccc(OCC)cc2)C(Cl)(Cl)Cl)cc1 [Ethoxychlor, 2,2-bis(p-ethoxyphenyl)-1,1,1-trichloroethane] | substantially biodegradable; also recorded: substantially more biodegradable than DDT |

System: Anopheles albimanus larvae
Experiment: LC50 to Anopheles albimanus larvae
Assay type: in vivo, Anopheles albimanus Weid
Settings: not given
From the text: (§3) World Health Org. 363 (1971). […] Food Chem. 1145 (1970). […] Sci. Tech. 709 (1971). The results are detailed in Table II. ##SPC1##

| Structure (SMILES) | LC50 Anopheles albimanus larvae |
| --- | --- |
| CCOc1ccc(C(Nc2ccccc2OCC)C(Cl)(Cl)Cl)cc1 (stereo not drawn) [XXI] | > 1.0 ppm |
| Cc1ccc(NC(c2ccc(C)cc2)C(Cl)(Cl)Cl)cc1 (stereo not drawn) [IV] | 0.21 ppm |
| COc1ccc(NC(c2ccc(Cl)cc2)C(Cl)(Cl)Cl)cc1 (stereo not drawn) [VI] | 0.37 ppm |
| CCOc1ccc(C(Nc2ccccc2OCC)C(Cl)(Cl)Cl)c(OCC)c1 (stereo not drawn) [XXII] | > 1.0 ppm |
| CCOc1ccc(NC(c2ccccc2OCC)C(Cl)(Cl)Cl)cc1 (stereo not drawn) [XX] | > 1.0 ppm |

System: Phormia regina
Experiment: whole plant or invertebrate
Settings: Phormia regina, topical, read-out: Topical LD50, Phormia regina, Alone
Protocol: as §1, with “363 (1971).” left out, “Food Chem. 1145 (1970).” left out, “Tech.” for “Tech. 709 (1971).”
as §2

| Structure (SMILES) | LD50 |
| --- | --- |
| CCOc1ccc(C(Nc2ccccc2OCC)C(Cl)(Cl)Cl)cc1 (stereo not drawn) [XXI] | > 250 mg/kg |
| Cc1ccc(NC(c2ccc(C)cc2)C(Cl)(Cl)Cl)cc1 (stereo not drawn) [IV] | 33.7 mg/kg |
| COc1ccc(NC(c2ccc(Cl)cc2)C(Cl)(Cl)Cl)cc1 (stereo not drawn) [VI] | 128 mg/kg |
| CCOc1ccc(C(Nc2ccccc2OCC)C(Cl)(Cl)Cl)c(OCC)c1 (stereo not drawn) [XXII] | > 250 mg/kg |
| CCOc1ccc(NC(c2ccccc2OCC)C(Cl)(Cl)Cl)cc1 (stereo not drawn) [XX] | > 250 mg/kg |

Same assay, conditions: synergistic ratio: LD50 alone/LD50 synergized with piperonyl butoxide

| Structure (SMILES) | SR, Phormia regina |
| --- | --- |
| COc1ccc(NC(c2ccc(Cl)cc2)C(Cl)(Cl)Cl)cc1 (stereo not drawn) [VI] | 1.6 |

Same assay, conditions: synergized with piperonyl butoxide; topical

| Structure (SMILES) | Topical LD50, Phormia regina, with pb |
| --- | --- |
| CCOc1ccc(C(Nc2ccccc2OCC)C(Cl)(Cl)Cl)cc1 (stereo not drawn) [XXI] | > 250 μg per g |
| Cc1ccc(NC(c2ccc(C)cc2)C(Cl)(Cl)Cl)cc1 (stereo not drawn) [IV] | 21.0 μg per g |
| COc1ccc(NC(c2ccc(Cl)cc2)C(Cl)(Cl)Cl)cc1 (stereo not drawn) [VI] | 80 μg per g |
| CCOc1ccc(C(Nc2ccccc2OCC)C(Cl)(Cl)Cl)c(OCC)c1 (stereo not drawn) [XXII] | > 250 μg per g |
| CCOc1ccc(NC(c2ccccc2OCC)C(Cl)(Cl)Cl)cc1 (stereo not drawn) [XX] | > 250 μg per g |

System: Culex fatigans larvae
Experiment: LC50 to Culex fatigans larvae
Assay type: in vivo, Culex pipiens quinquefasciatus Say
Settings: not given
From the text: as §3

| Structure (SMILES) | LC50 Culex fatigans larvae |
| --- | --- |
| CCOc1ccc(C(Nc2ccccc2OCC)C(Cl)(Cl)Cl)cc1 (stereo not drawn) [XXI] | > 1.0 ppm |
| Cc1ccc(NC(c2ccc(C)cc2)C(Cl)(Cl)Cl)cc1 (stereo not drawn) [IV] | 0.18 ppm |
| COc1ccc(NC(c2ccc(Cl)cc2)C(Cl)(Cl)Cl)cc1 (stereo not drawn) [VI] | 0.44 ppm |
| CCOc1ccc(C(Nc2ccccc2OCC)C(Cl)(Cl)Cl)c(OCC)c1 (stereo not drawn) [XXII] | > 1.0 ppm |
| CCOc1ccc(NC(c2ccccc2OCC)C(Cl)(Cl)Cl)cc1 (stereo not drawn) [XX] | > 1.0 ppm |
